One may read the Ki as the dissociation constant of the complex between target and ligand, obtained from inhibition or displacement.

Consider 32 molecules from patent publication US8440654B2, “Thieno- and furo-pyrimidine modulators of the histamine H4 receptor” (Janssen Pharmaceutica NV, priority 2007, dated 2013).

Counter-ions that a name gives are not always drawn.

In this test the target is T1, human histamine H4 receptor (Homo sapiens, UniProt Q9H3N8).
T1 construct: expressed in transfected cells; host or cells: SK-N-MC cells or COS7 cells, transiently transfected with pH4R; membrane preparation
T1 sequence (Q9H3N8 whole entry): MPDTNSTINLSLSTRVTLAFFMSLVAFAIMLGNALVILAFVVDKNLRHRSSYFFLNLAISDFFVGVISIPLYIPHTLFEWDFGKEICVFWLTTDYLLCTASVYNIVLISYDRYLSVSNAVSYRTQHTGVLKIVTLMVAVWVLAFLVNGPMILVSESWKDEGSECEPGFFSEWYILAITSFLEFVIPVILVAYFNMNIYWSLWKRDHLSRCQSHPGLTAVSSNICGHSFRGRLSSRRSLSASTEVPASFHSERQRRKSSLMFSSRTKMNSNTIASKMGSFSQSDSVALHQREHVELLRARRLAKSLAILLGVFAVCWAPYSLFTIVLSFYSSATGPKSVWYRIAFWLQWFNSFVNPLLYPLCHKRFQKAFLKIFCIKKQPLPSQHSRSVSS
Kind of test: Binding Assay on Recombinant Human Histamine H4 Receptor. The note with it: competition binding with 3H-histamine, membranes of SK-N-MC or COS7 cells transfected with human H4R; average of results obtained. As to the method:
Biological Methods: Binding Assay on Recombinant Human Histamine H4 Receptor.
SK-N-MC cells or COS7 cells were transiently transfected with pH4R and grown in 150 cm^2 tissue culture dishes. Cells were washed with saline solution, scraped with a cell scraper and collected by centrifugation (1000 rpm, 5 min). Cell membranes were prepared by homogenization of the cell pellet in 20 mM Tris-HCl with a polytron tissue homogenizer for 10 sec at high speed. Homogenate was centrifuged at 1000 rpm for 5 min at 4° C. The supernatant was then collected and centrifuged at 20,000×g for 25 min at 4° C. The final pellet was resuspended in 50 mM Tris-HCl. Cell membranes were incubated with ^3H-histamine (5-70 nM) in the presence or absence of excess histamine (10,000 nM). Incubation occurred at room temperature for 45 min. Membranes were harvested by rapid filtration over Whatman GF/C filters and washed 4 times with ice-cold 50 mM Tris HCl. Filters were then dried, mixed with scintillant and counted for radioactivity. SK-N-MC or COS7 cells expressing human histamine H4 receptor were used to measure the affinity of binding of other compounds and their ability to displace ^3H-ligand binding by incubating the above-described reaction in the presence of various concentrations of inhibitor or compound to be tested. For competition binding studies using ^3H-histamine, K values were calculated, based on an experimentally determined KD value of 5 nM and a ligand concentration of 5 nM, according to Y.-C.

Take `Nc1nc(N2CCCNCC2)c2oc3c(c2n1)CCCC3` [Example 22, 4-(1,4-Diazepan-1-yl)-6,7,8,9-tetrahydro[1]benzo-furo[3,2-d]pyrimidin-2-amine trifluoroacetic acid salt]: the Ki amounted to 3 nM.

As for `CNC1CCN(c2nc(N)nc3c4c(oc23)CCCC4)C1` (stereo in doubt) [Example 21, 4-[(3R)-3-(Methyl-amino)pyrrolidin-1-yl]-6,7,8,9-tetrahydro[1]benzo-furo[3,2-d]pyrimidin-2-amine trifluoro acid salt], the inhibition constant Ki was 3 nM.

For the molecule `Nc1nc(N2CCNCC2)c2oc3c(c2n1)CC(F)(F)CC3` [Example 118, 8,8-Difluoro-4-piperazin-1-yl-6,7,8,9-tetrahydro[1]benzofuro[3,2-d]pyrimidin-2-amine hydrochloride], the Ki stood at 29 nM.

For `CN(CCN)c1nc(N)nc2c3c(sc12)CCC(F)(F)C3` [Example 115, N^4-(2-Aminoethyl)-8,8-difluoro-N^4-methyl-6,7,8,9-tetrahydro[1]benzothieno[3,2-d]pyrimidine-2,4-diamine trifluoroacetate], the Ki was 21 nM.

`CN(CCN)c1nc(N)nc2c3c(sc12)CCC(C)(C)C3` [Example 133, N^4-(2-Aminoethyl)-N^4,8,8-trimethyl-6,7,8,9-tetrahydro[1]benzothieno[3,2-d]pyrimidine-2,4-diamine trifluoroacetate]: the Ki worked out at 54 nM.

Turning to `CN1CCN(c2ncnc3c4c(sc23)CCCC4)CC1` [Example 10, 4-(4-Methyl-piperazin-1-yl)-6,7,8,9-tetrahydro-benzo[4,5]thieno[3,2-d]pyrimidine], the Ki was determined as 132 nM.

As for `Nc1nc(N2CCC(N)C2)c2sc3c(c2n1)CCCC3` (stereo in doubt) [Example 56, 4-[(3R)-3-Aminopyrrolidin-1-yl]-6,7,8,9-tetrahy-dro[1]benzothieno[3,2-d]pyrimidin-2-amine trifluoracetic acid salt], the Ki was 10 nM.

With `NCCN1CCN(c2nc(N)nc3c4c(sc23)CCCC4)CC1` [Example 49, 4-[4-(2-Aminoethyl)piper-azin-1-yl]-6,7,8,9-tetrahy-dro[1]benzothieno[3,2-d]pyrimidin-2-amine tri-fluoroacetic acid salt], the Ki amounted to 2260 nM.

`Nc1nc(N2CC[C@@H](N)C2)c2sc3c(c2n1)CC(F)(F)CC3` [Example 113, 4-[(3R)-3-Aminopyrrolidin-1-yl]-8,8-difluoro-6,7,8,9-tetrahydro[1]benzothieno[3,2-d]pyrimidin-2-amine hydrochloride]: the Ki is 1.1 nM.

In the case of `NCCNc1ncnc2c3c(oc12)CCCC3` [Example 27, N-(6,7,8,9-Tetra-hydro[1]benzofuro[3,2-d]pyrimidin-4-yl]ethane-1,2-diamine], the inhibition constant Ki is greater than 10000 nM.

In the case of `Nc1nc(N2C[C@H]3CCN[C@H]3C2)c2oc3c(c2n1)CCCC3` [Example 7, 4-[(3aR,6aR)-Hexahydropyrrolo[3,4-b]pyrrol-5(1H)-yl]-6,7,8,9-tetrahydro[1]benzofuro[3,2-d]pyrimidin-2-amine], the inhibition constant Ki is 3 nM.

As for `Nc1nc(N2CCNCC2)c2oc3c(c2n1)CCCC3` [Example 6, 4-piperazin-1-yl-6,7,8,9-tetrahydro-benzo[4,5]furo[3,2-d]pyrimidin-2-ylamine], the Ki was found to be 5 nM.

Consider `CN[C@H]1CCN(c2nc(N)nc3c4c(oc23)CCC(F)(F)C4)C1` [Example 122, 8,8-Difluoro-4-[(3S)-3-(methylamino)pyrrolidin-1-yl]-6,7,8,9-tetrahydro[1]benzofuro[3,2-d]pyrimidin-2-amine trifluoroacetate], for which the Ki came to 7 nM.

For the molecule `CC(C)(C)c1cc2nc(N)nc(N3CC4CCCNC4C3)c2s1` (centres unmarked) [Example 19, 6-tert-Butyl-4-(octahydro-6H-pyrrolo[3,4-b]pyridin-6-yl)thieno[3,2-d]pyrimidin-2-amine trifluoroacetic acid salt], the Ki turned out to be 244 nM.

For the molecule `Nc1nc(N2CCn3cnnc3C2)c2sc3c(c2n1)CCCC3` [Example 54, 4-(5,6-Dihydro[1,2,4-a]pyrazin-7(8H)-yl)-6,7,8,9-tetrahydro[1]benzothieno[3,2-d]pyrimidin-2-amine trifluoroacetic acid salt], the Ki is 1610 nM.

Turning to `NCCNc1nc(N)nc2c3c(oc12)CCCC3` [Example 25, N4-(2-Aminoethyl)-6,7,8,9-tetrahydro[1]benzofuro[3,2-d]pyrimidine-2,4-diamine trifluoroacetic acid salt], the Ki amounted to 507 nM.

`CC1CCc2sc3c(N4C[C@H]5CCCN[C@H]5C4)nc(N)nc3c2C1` (stereo partly drawn) [Example 45, 8-Methyl-4-[(4aR,7aR)-octa-hydro-6H-pyrrolo-[3,4-b]pyridin-6-yl]-6,7,8,9-tetra-hydro[1]benzothieno[3,2-d]pyrimidin-2-amine trifluoroacetic acid salt]: the Ki came to 4 nM.

On to `CN[C@H]1CCN(c2nc(N)nc3c4c(sc23)CCC(C)(C)C4)C1` [Example 135, 8,8-Dimethyl-4-[(3S)-3-(methylamino)pyrrolidin-1-yl]-6,7,8,9-tetrahydro[1]benzothieno[3,2-d]pyrimidin-2-amine hydrochloride], for which the inhibition constant Ki was 35 nM.

Take `Nc1nc(N2CCCNCC2)c2oc3c(c2n1)CC(F)(F)CC3` [Example 130, 4-(1,4-Diazepan-1-yl)-8,8-difluoro-6,7,8,9-tetrahydro[1]benzofuro[3,2-d]pyrimidin-2-amine (free amine)]: the Ki is 8.2 nM.

As for `CC(C)(C)c1cc2nc(N)nc(N3CCC(N)C3)c2s1` (stereo in doubt) [Example 18, 4-[(3R)-3-Aminopyrrolidin-1-yl]-6-tert-butylthieno[3,2-d]pyrimidin-2-amine trifluoroacetic acid salt], the Ki was found to be 221 nM.

Turning to `CCNC1CCN(c2nc(N)nc3c4c(sc23)CCCC4)C1` (stereo in doubt) [Example 40, 4-[(3R)-3-(Ethyl-amino)pyrrolidin-1-yl]-6,7,8,9-tetrahydro[1]benzo-thieno[3,2-d]pyrimidin-2-amine trifluoroacetic acid salt], the Ki is 503 nM.

As to `c1nc(N2CCNCC2)c2oc3c(c2n1)CCCC3` [Example 9, 4-piperazin-1-yl-6,7,8,9-tetrahydro-benzo[4,5]furo[3,2-d]pyrimidine], the Ki turned out to be 110 nM.

Turning to “(3R)-N-Methyl-1-(6,7,8,9- tetrahydro[1]benzo- thieno[3,2-d]pyrimidin-4- yl)pyrrolidin-3-amine [Example 30]”, the Ki was 145 nM.

Regarding `CN1CCN(c2nc(N)nc3c4c(oc23)CCC(F)(F)C4)CC1` [Example 123, 8,8-Difluoro-4-(4-methylpiperazin-1-yl)-6,7,8,9-tetrahydro[1]benzofuro[3,2-d]pyrimidin-2-amine trifluoroacetate], the Ki came to 15 nM.

On to `CN1CCN(c2nc(N)nc3c4c(sc23)CCCCC4)CC1` [Example 46, 4-(4-Methylpiperazin-1-yl)-7,8,9,10-tetrahydro-6H-cyclohepta[4,5]thieno[3,2-d]pyrimidin-2-amine tri-fluoroacetic acid salt], for which the Ki worked out at 21 nM.

As to `NC[C@H]1CCN(c2nc(N)nc3c4c(sc23)CCCC4)C1` [Example 41, 4-[(3R)-3-(Amino-methyl)pyrrolidin-1-yl]-6,7,8,9-tetrahydro[1]benzo-thieno[3,2-d]pyrimidin-2-amine trifluoroacetic acid salt], the Ki was found to be 1010 nM.

Consider `Nc1nc(N2C[C@H]3CCCN[C@H]3C2)c2sc3c(c2n1)CCCCC3` [Example 48, 4-[(4aR,7aR)-Octahydro-6H-pyrrolo[3,4-b]pyridin-6-yl]-7,8,9,10-tetrahydro-6H-cyclohepta[4,5-d]pyrimidin-2-amine trifluoroacetic acid salt], for which the Ki amounted to 3 nM.

Turning to `CN[C@H]1CCN(c2nc(N)nc3c4c(sc23)CCCC4)C1` [Example 55, 4-[(3S)-3-(Methyl-amino)pyrrolidin-1-yl]-6,7,8,9-tetrahydro[1]benzo-thieno[3,2-d]pyrimidin-2-amine trifluoroacetic acid salt], the Ki was determined as 33 nM.

In the case of `CC(C)(C)c1cc2nc(N)nc(N3CCNCC3)c2s1` [Example 17, 6-tert-Butyl-4-piperazin-1-ylthieno[3,2-d]pyrimidin-2-amine trifluoroacetic acid salt], the Ki is 142 nM.

On to `Nc1nc(N2CC[C@@H](N)C2)c2oc3c(c2n1)CC(F)(F)CC3` [Example 117, 4-[(3R)-3-Aminopyrrolidin-1-yl]-8,8-difluoro-6,7,8,9-tetrahydro[1]benzofuro[3,2-d]pyrimidin-2-amine hydrochloride], for which the Ki came out at 6.8 nM.

Turning to `CN1CCN(c2nc(N)nc3c4c(oc23)CCCC4)CC1` [Example 5, 4-(4-Methyl-piperazin-1-yl)-6,7,8,9-tetrahydro-benzo[4,5]furo[3,2-d]pyrimidin-2-ylamine], the Ki was 8 nM.

Take “4-[(1S,4S)-2,5-Diazabi- cyclo]2.2.1-2-yl]hept-2-yl]- 6,7,8,9-tetrahydro[1]benzo- thieno[3,2-d]pyrimidin-2- amine [Example 35]”: the Ki is 417 nM.
